Test results reported in US20250250312A1, “BIFUNCTIONAL PEPTIDE WITH MU[…] VIRUS BINDING PROPERTIES” (priority 2022, published 2025).

How the values were obtained:
[1] = biological target: receptor binding domain (RBD) of SARS-CoV-2 (2019-nCoV) (Severe acute respiratory syndrome coronavirus 2, UniProt P0DTC2); test: biochemical; details: Table 4, cysteines in reduced state, MST
[2] = biological target: receptor binding domain (RBD) of SARS-CoV-2 wildtype (2019-nCoV) (SARS-CoV-2), P0DTC2

Molecule	Kd [1]	Kd [2]
CC(C)C[C@H](NC(=O)[C@H](Cc1ccccc1)NC(=O)[C@@H](NC(=O)[C@H](CCCCN)NC(=O)[C@H](C)NC(=O)[C@H](CCC(N)=O)NC(=O)[C@H](CCC(=O)O)NC(=O)[C@@H](N)CCC(=O)O)[C@@H](C)O)C(=O)N[C@@H](CC(=O)O)C(=O)N[C@@H](CCCCN)C(=O)N[C@@H](Cc1ccccc1)C(=O)N[C@@H](CC(N)=O)C(=O)N[C@@H](Cc1c[nH]cn1)C(=O)N[C@@H](CCC(=O)O)C(=O)N[C@@H](C)C(=O)N[C@@H](CCC(=O)O)C(=O)N[C@@H](CC(=O)O)C(=O)N[C@@H](CS)C(=O)N[C@@H](Cc1ccccc1)C(=O)N[C@@H](Cc1ccc(O)cc1)C(=O)N[C@@H](CCC(N)=O)C(=O)N[C@@H](CS)C(=O)N[C@@H](CO)C(=O)O [p4C18, 22]	218 nM	–
EEQAKTFKDKFDHEAEDLFYQSSGLGKGDFR (modifications not checked) [p6(K)8(D)12]	–	5000 nM
